Counter-ions that a name gives are not always drawn. Like-named read-outs stand apart in the source and are kept apart here.
What was measured:
[1] = biological target: T1, Aβ(1-40) fibrils / biotinyl-Aβ(1-40) (Homo sapiens, UniProt P05067); test: Microplate Aβ(1-40) elongation screening assay, LOPAC library; type: biochemical; conditions: for Initial stimulation observed: original LOPAC screen, deposition of biotinyl-Aβ(1-40) on immobilized fibrils
T1 construct: purchased Keck Biotechnology Center at Yale University
Experimental: Microtiterplate Elongation and Screening Assays. The Aβ(1-40) microplate elongation assay has been described (12). For screening the compound library, plates were coated with 100 ng Aβ(1-40) fibrils and washed. The assay was initiated by adding to each well, in order, 80 μl assay buffer [PBSA (phosphate-buffered saline containing 0.05% (w/v) sodium azide) containing 0.05% Tween 20], 10 μl of a 1 mM solution of test compound in DMSO, and 10 μl 100 nM biotinyl-Aβ in assay buffer. Plates were incubated 30 mins at 37° C., then washed and the signal developed as described using a streptavidin-europium linked fluorescence assay (12, 13). Each microplate collection of compounds was assayed in triplicate, and results reported as % inhibition compared to control wells lacking test compounds.
We screened a small library of 640 compounds, the LOPAC library (Sigma), using a microplate-based Aβ elongation assay. In this assay, plastic wells containing immobilized fibrils are incubated with a biotin-tagged monomer in the presence or absence of potential modifiers (13, 18). We found a number of compounds with potent abilities to enhance deposition of the biotin-tagged Aβ(1-40) (FIG. 1). Seven of the compounds were selected for further analysis:—amiloride HCl, phenamil methane sulfonate, naftopidil dihydrochloride, NPC 15437 dihydrochloride, calmidazolium chloride (R24571), 5-(nonoxyl)-tryptamine hydrogen oxalate, and L-α-methyl DOPA. The compounds have a wide variety of structures and biochemical properties. The structures of these seven compounds are shown in FIG. 9, along with the percent stimulation observed in the experiments.
We characterized the activity of CLC in the microplate assay in more detail.

[2] = biological target: T2, Aβ (Homo sapiens, UniProt P05067); test: Secondary screening: aggregate formation in the absence of seeding Aβ amyloid fibrils; type: biochemical
T2 construct: purchased Keck Biotechnology Center at Yale University
From the text: Four compounds—calmidazolium chloride, NPC 15437, phenamil methane sulfonate, and amiloride HCl were chosen for secondary screening, e.g., assaying for formation of stabilized Aβ protofibrillar aggregates in the absence of seeding Aβ amyloid fibrils. All four compounds to be retested were purchased from Sigma.

[3] = biological target: T3, Aβ(1-40) (Homo sapiens, UniProt P05067); test: Solution phase aggregation assay (ThT fluorescence, HPLC of centrifugation supernatants); type: biochemical
T3 construct: purchased Keck Biotechnology Center at Yale University
Experimental: Aβ(1-40) peptides were disaggregated just prior to use, as described previously (12, 14). Peptides (50 μM in fibril formation reactions, approximately 30 μM in CLC aggregation reactions) were incubated in […] at 37° C. Reaction progress was followed by ThT fluorescence and/or quantitative HPLC on centrifugation (30 mins, 315,000×g) supernatants of reaction aliquots (12, 15). The Cr value is the concentration of Aβ in solution when this value stops changing with time. For amyloid fibril growth, this value represents a position of dynamic equilibrium and is the reciprocal of the growth equilibrium constant for the amyloid fibrils (15); for the CLC-induced aggregation, the value is a more qualitative measure of the stability of the Aβ-CLC aggregates. Samples of aggregates were stored at −80° C. after snap-freezing of washed pellets. Reactions with CLC contained 10% DMSO from the CLC stock solution.
To confirm the microtiter plate assay, we carried out solution phase experiments using unlabelled Aβ(1-40). […] During the ThT lag phase, the amount of soluble, monomeric Aβ is reduced by about a factor of two, consistent with the formation of protofibrillar structures with low ThT response (2). In contrast, in the presence of 100 μM CLC, Aβ(1-40) is rapidly converted to a pelletable aggregate, so that within 1-2 hrs only 2-3 μM Aβ remains in solution after centrifugation (FIG. 3a,b); when these aggregates are isolated by sedimentation, they are found to contain a ratio of 4 moles of CLC per mole of Aβ(1-40) (results of independent analyses against both HPLC and MS standard curves). The significance of this ratio is not clear.

[4] = biological target: T4, Aβ (1-42) (Homo sapiens, UniProt P05067); conditions: cited from earlier work
T4 construct: polymeric sheet intermediates using Aβ (1-42) and a compound Ro 90-7501

[5] = biological target: CLC-Aβ(1-40) aggregates (stabilized Aβ protofibrillar aggregates made with calmidazolium chloride); test: solution phase aggregation with 100 µM CLC; HPLC of centrifugation supernatants
[6] = stimulation of Aβ deposition, microplate assay, read-out: EC50

T1 sequence (P05067 672-711): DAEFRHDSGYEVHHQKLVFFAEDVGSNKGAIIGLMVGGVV
T3 sequence (P05067 672-711): as above
T2 sequence (P05067 672-711 limits assumed): as the sequence (P05067 672-711) above
T4 sequence (P05067 672-713): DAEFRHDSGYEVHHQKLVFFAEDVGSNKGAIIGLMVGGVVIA

Compound	Initial stimulation observed [1] [%]	EC50 [1, 6] [µM]	Activity in enhancing aggregate formation [2]	other results
CCCCCCCCCCCCC(=O)N1CCCCC1CNC(=O)C(N)CCCCN (stereo not shown) [NPC15437]	149	> 27.2	sub-optimal activity	–
NC(=Nc1ccccc1)NC(=O)c1nc(Cl)c(N)nc1N [Phenamil methane sulfonate, phenamil methane sulfonate]	242	≥ 35.5	sub-optimal activity	–
CCCCCCCCCOc1ccc2[nH]cc(CCN)c2c1.O=C(O)C(=O)O [5-(nonyloxy)-tryptamine hydrogen oxalate]	136	–	–	EC50 [1]: ≥ 30.3 µM
C[C@](N)(Cc1ccc(O)c(O)c1)C(=O)O [L-α-methyl DOPA]	127	≥ 34.2	–	–
COc1ccccc1N1CCN(CC(O)COc2cccc3ccccc23)CC1 (stereo not shown) [Naftopidil dihydrochloride, naftopidil dihydrochloride]	150	≥ 36.2	–	–
WT Aβ(1-40): wild type Aβ(1-40) peptide, SEQ ID NO:1	–	–	–	Cr value, protofibril formation ([3]; CLC-induced aggregation): 1.6 µM; Cr value, fibril formation ([3]; amyloid fibril growth): 0.8 µM
N=C(N)NC(=O)c1nc(Cl)c(N)nc1N [Amiloride HCl, amiloride HCl]	96	≥ 38.5	sub-optimal activity	–
P4: tetra-substituted Aβ(1-40) mutant with prolines at positions 9, 23, 30 and 37, SEQ ID NO:34 (DAEFRHDSPYEVHHQKLVFFAEPVGSNKGPIIGLMVPGVV; Amyloid-beta protein 40; UniProt P05067 672-711, looked up, variant G9P D23P A30P G37P)	–	–	–	Stability of amyloid fibrils ([3]; scanning proline mutagenesis): same stability as wild type Aβ(1-40); Stability of CLC aggregates ([3]; scanning proline mutagenesis, 100 μM CLC): significantly destabilized compared to WT
Clc1ccc(C(c2ccc(Cl)cc2)n2cc[n+](CC(OCc3ccc(Cl)cc3Cl)c3ccc(Cl)cc3Cl)c2)cc1 (stereo not shown) [Calmidazolium chloride, calmidazolium chloride]	598	≥ 21.4	potent stabilizing compound	Stimulation of Aβ deposition compared to the elongation reaction in the absence of added compound ([1]; at 100 μM): about six; Concentrations at which deposition is stimulated (dose response) ([1]; deposition of 10 nM Aβ): 10 to 100 µM; ThT signal relative to the same weight of mature amyloid fibrils ([3]; 100 μM CLC, after 14 days): about 20%; Aβ remaining in solution after centrifugation ([3]; 100 μM CLC, within 1-2 hrs): 2 to 3 µM
Nc1ccc(-c2nc3ccc(-c4nc5ccc(N)cc5[nH]4)cc3[nH]2)cc1 [Ro 90-7501]	–	–	–	Effect on formation of mature fibrils [4]: retarded but did not block formation of mature fibrils
wild type Aβ(1-40) (disaggregated, monomeric) (peptide)	–	–	–	Cr (concentration of Aβ in solution when it stops changing with time) [5]: 1.6 µM

Source: patent US20060079447A1, “Stabilized A-beta protofibrillar aggregates” (priority 2004, published 2006)
